Experiment: Rat pharmacokinetics, IV imatinib mesylate vs IT imatinib free base/cyclodextrin (Example 9)
Format: in vivo, Sprague Dawley rats
Conditions: IV data, 60 min collection period
Experimental: Lung tissue and blood were collected for analysis.
Experimental Design and Execution: In brief, after the animals were transferred to study, all animals were randomly assigned to treatment groups per the study design below. Animals were treated either via intravenous (IV) administration of formulation R1, or via intratracheal (IT) administration for formulation R2 of the test article.
Averages for each time point are reported for groups/time points that have a minimum of 2 animals.
The Therapeutic Advantage (Rd) in Table 8 was calculated using the following equation: […]

Cc1ccc(NC(=O)c2ccc(CN3CCN(C)CC3)cc2)cc1Nc1nccc(-c2cccnc2)n1 [imatinib free base, imatinib]
tissue distribution lung vs plasma: preferentially accumulates in the lung tissue
